Values quoted from earlier work as cited in patent publication US20220202008A1, “BAIT FOR A PEST” (FALCON LIFE SCIENCES LTD, priority 2020, published 2022).

Test system: mouse
Settings: acute dose

For `COC(C)(C)CCCC(C)CC=CC(C)=CC(=O)OC(C)C` (stereo not shown) [methoprene, isopropyl 11-methoxy-3,7,11-trimethyldodeca-2,4-dienoate], the LD50 is listed as “around 5000 ppm”.
